Experimental findings from paper PMC10468942, “A Fluorescent Probe as a Lead Compound for a Selective α-Synuclein PET Tracer: Development of a Library of 2-Styrylbenzothiazoles and Biological Evaluation of [^18F]PFSB and [^18F]MFSB” (ACS Omega, 2023) are described below.

The target of experiment [1] is T1, Aβ1-42 fibrils (Homo sapiens, UniProt P05067).
T1 construct: Synthetic lyophilized human Aβ1-42 peptide; purchased EMC Microcollections, Tuebingen, Germany; host or cells: synthetic peptide
Put plainly: [^3H]PiB competition binding assay on Aβ fibrils. The following applies: for competition with [^3H]PiB / binding to Aβ fibrils (in words): Aβ1–42 fibrils. The procedure: Following the cloning of the DNA construct encoding full-length αSYN into the pET-22b vector and its transformation into BL21 cells, the expression of human αSYN from a prokaryotic host was induced overnight in Escherichia coli at 20 °C with 0.5 mM IPTG. The cells were harvested by centrifugation, resuspended in 20 mM Tris-HCl pH 7.6, 25 mM NaCl and 1× complete protease inhibitor (Roche, Basel, Switzerland), and lysed by sonication. […] Anion exchange chromatography (HiTrap Q, GE Healthcare, Chicago, Illinois) was used to trap the produced αSYN, which was eluted with NaCl 0.1 M over 20 column volumes. Fractions containing αSYN were concentrated and further purified through a Superdex 75 SEC column equilibrated with PBS. […] A 4 mg/mL solution of αSYN in 20 mM K3PO4 pH 9.1 was placed in an orbital shaker at 37 °C, 1000 rpm for 5 days to prepare P91s. The assemblies were either sonicated with cycles of 20 s on and 10 s off at 50% amplitude (Q800R3, Qsonica) for a total of 10 min or directly aliquoted in volumes of 10 μL each stored at −80 °C until use. The method for Aβ1-42 fibrils generation was adapted from Bagchi et al. and described in Kuebler et al.[17],[27] […] Aggregation was induced by incubation in an Eppendorf Thermomixer at 37 °C with shaking at 800 rpm for 72 h. The resulting fibrils were sonicated for 3 min in a water bath (Elmasonic S 60 H, Elma Schmidbauer GmbH, Singen, Germany). The final products were aliquoted, frozen on dry ice, and stored at −80 °C until use.
(§1) Concentrations of αSYN and Aβ1-42 fibrils were as described above.
(§2) Plates were incubated on a shaker (MaxQ 6000, Thermo Fisher Scientific, Inc., Marietta, OH) at 50 rpm for 2 h at 37 °C, covered by removable sealing tapes (PerkinElmer, Waltham, MA). Vacuum filtration and read-out were performed as previously reported.[17] […] Data points were fitted using nonlinear regression analysis in GraphPad Prism (GraphPad Software, Inc., Version 8.4.0, La Jolla).

Experiment [2] has as its target T2, αSYN fibrils (Homo sapiens, UniProt P37840).
T2 construct: cloning of the DNA construct encoding full-length αSYN into the pET-22b vector; made in house; host or cells: Escherichia coli BL21
The experiment is described as follows: [^3H]PiB competition binding assay on αSYN fibrils. The procedure:
Following the cloning of the DNA construct encoding full-length αSYN into the pET-22b vector and its transformation into BL21 cells, the expression of human αSYN from a prokaryotic host was induced overnight in Escherichia coli at 20 °C with 0.5 mM IPTG. The cells were harvested by centrifugation, resuspended in 20 mM Tris-HCl pH 7.6, 25 mM NaCl and 1× complete protease inhibitor (Roche, Basel, Switzerland), and lysed by sonication. […] Anion exchange chromatography (HiTrap Q, GE Healthcare, Chicago, Illinois) was used to trap the produced αSYN, which was eluted with NaCl 0.1 M over 20 column volumes. Fractions containing αSYN were concentrated and further purified through a Superdex 75 SEC column equilibrated with PBS. […] A 4 mg/mL solution of αSYN in 20 mM K3PO4 pH 9.1 was placed in an orbital shaker at 37 °C, 1000 rpm for 5 days to prepare P91s. The assemblies were either sonicated with cycles of 20 s on and 10 s off at 50% amplitude (Q800R3, Qsonica) for a total of 10 min or directly aliquoted in volumes of 10 μL each stored at −80 °C until use. […] The final products were aliquoted, frozen on dry ice, and stored at −80 °C until use.
as §1, §2

The target of experiment [3] is T2, αSYN fibrils. The experiment is described as follows: [^3H]MODAG-001 competition binding assay on αSYN fibrils. As to conditions: for Ki: n = 2, single determinations. The procedure: Following the cloning of the DNA construct encoding full-length αSYN into the pET-22b vector and its transformation into BL21 cells, the expression of human αSYN from a prokaryotic host was induced overnight in Escherichia coli at 20 °C with 0.5 mM IPTG. The cells were harvested by centrifugation, resuspended in 20 mM Tris-HCl pH 7.6, 25 mM NaCl and 1× complete protease inhibitor (Roche, Basel, Switzerland), and lysed by sonication. Additionally, they were boiled for 15 min and centrifuged at 12 000g for 30 min. Anion exchange chromatography (HiTrap Q, GE Healthcare, Chicago, Illinois) was used to trap the produced αSYN, which was eluted with NaCl 0.1 M over 20 column volumes. Fractions containing αSYN were concentrated and further purified through a Superdex 75 SEC column equilibrated with PBS. Additional purification was conducted via a high-capacity endotoxin removal spin column (Pierce, Waltham, Massachusetts), affording an endotoxin level below 1.0 EU/mg. The monomeric state and monodispersity of pure αSYN were confirmed by dynamic light scattering and fibrillation was performed according to the protocol from Makky et al.[26] A 4 mg/mL solution of αSYN in 20 mM K3PO4 pH 9.1 was placed in an orbital shaker at 37 °C, 1000 rpm for 5 days to prepare P91s. The assemblies were either sonicated with cycles of 20 s on and 10 s off at 50% amplitude (Q800R3, Qsonica) for a total of 10 min or directly aliquoted in volumes of 10 μL each stored at −80 °C until use. The method for Aβ1-42 fibrils generation was adapted from Bagchi et al. and described in Kuebler et al.[17],[27] […]
Plates were incubated on a shaker (MaxQ 6000, Thermo Fisher Scientific, Inc., Marietta, OH) at 50 rpm for 2 h at 37 °C, covered by removable sealing tapes (PerkinElmer, Waltham, MA). Vacuum filtration and read-out were performed as previously reported.[17] […]

Where [4] appears, read: nonmethylated compounds, Table 1, two values in a cell = single determinations, a: mean Ki ± SEM of three data points, b: single data point, read-out: Ki.
Setting [5] is: methylated compounds, Table 2, two values in a cell = single determinations, read-out: Ki.
The mark [6] stands for this setting: Ki, αSYN [^3H]PiB competition, mean Ki ± SEM, n = 3, or single determinations.

Where “and” joins values, the source holds several entries; their conditions need not be identical. Equal values may be shown once. A value given as a limit tells only on which side of the number the result lay.

Broadly, the Ki is the dissociation constant of the complex between target and ligand, obtained from inhibition or displacement.

T1 sequence (P05067 672-713 limits assumed): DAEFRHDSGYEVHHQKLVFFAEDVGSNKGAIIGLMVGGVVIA

Turning to `Fc1ccc2nc(C=Cc3ccc(N4CCCCC4)cc3)sc2c1` [9a, 6-Fluoro-2-(4-(piperidin-1-yl)styryl)benzo[d]thiazole], the “competition with [^3H]PiB / binding to Aβ fibrils (in words)” value (shortened to “competition with [^3H]PiB / binding”) in experiment [1] was “None of the tested compounds appreciably competed against [^3H]PiB”. For the same molecule, the inhibition constant Ki in experiment [2] (setting [4]) was 25.4 ± 2.3 nM; in experiment [3] it was 125 nM and 159 nM.
As to `COc1cccc2c1sc(C=Cc1ccc(N3CCCCC3)cc1)[n+]2C` [11b, 7-Methoxy-3-methyl-2-(4-(piperidin-1-yl)styryl)benzo[d]thiazol-3-ium Iodide], the Ki in experiment [2] (setting [5]) was 234 nM and 177 nM.
With `Fc1cccc2nc(C=Cc3ccc(N4CCCCC4)cc3)sc12` [12a, 7-Fluoro-2-(4-(piperidin-1-yl)styryl)benzo[d]thiazole], the inhibition constant (Ki) in experiment [2] (setting [4]) is 283 nM.
Consider `C[n+]1c(C=Cc2ccc(N3CCCCC3)cc2)sc2c(F)cccc21` [12b, 7-Fluoro-3-methyl-2-(4-(piperidin-1-yl)styryl)benzo[d]thiazol-3-ium Iodide], for which the Ki in experiment [2] (setting [5]) was above 400 nM.
With `C[n+]1c(-c2ccc(N3CCCCC3)cc2)sc2ccccc21` [13b, 3-Methyl-2-(4-(piperidin-1-yl)phenyl)benzo[d]thiazol-3-ium], the Ki in experiment [2] (setting [5]) is above 400 nM.
Take `C(C=Cc1nc2ccccc2s1)=Cc1ccc(N2CCCCC2)cc1` [14a, 2-(4-(4-(Piperidin-1-yl)phenyl)buta-1,3-dien-1-yl)benzo[d]thiazole]: the “competition with [^3H]PiB / binding” value in experiment [1] is “None of the tested compounds appreciably competed against [^3H]PiB”. Moreover, the inhibitory constant (Ki) in experiment [2] (setting [4]) is 81.9 ± 15.6 nM.
As to `C[n+]1c(C=CC=Cc2ccc(N3CCCCC3)cc2)sc2ccccc21` [14b, 3-Methyl-2-(4-(4-(piperidin-1-yl)phenyl)buta-1,3-dien-1-yl)benzo[d]thiazol-3-ium Iodide], the inhibition constant (Ki) was below 20 nM in experiment [2] (setting [6]); 23 nM and 16.8 nM in experiment [2] (setting [5]).
Turning to `C(=Cc1nc2ccccc2s1)c1ccc(N2CCOCC2)cc1` [15a, 4-(4-(2-(Benzo[d]thiazol-2-yl)vinyl)phenyl)morpholine], the “competition with [^3H]PiB / binding” value in experiment [1] is “None of the tested compounds appreciably competed against [^3H]PiB”. The inhibition constant (Ki) in experiment [2] (setting [4]) came out at 92 ± 30.3 nM.
With `C[n+]1c(/C=C/c2ccc(N3CCOCC3)cc2)sc2ccccc21` [15b, 3-Methyl-2-(4-morpholinostyryl)benzo[d]thiazol-3-ium Iodide], the Ki in experiment [2] (setting [5]) is above 400 nM.
For the molecule `C(=Cc1nc2ccccc2s1)c1ccc(N2CCSCC2)cc1` [16a, 2-(4-Thiomorpholinostyryl)benzo[d]thiazole], in experiment [2] (setting [4]), the inhibition constant Ki was 219 nM and 58.6 nM.
For `C[n+]1c(C=Cc2ccc(N3CCSCC3)cc2)sc2ccccc21` [16b, 3-Methyl-2-(4-thiomorpholinostyryl)benzo[d]thiazol-3-ium Iodide], the inhibition constant Ki in experiment [2] (setting [5]) is above 400 nM.
On to `C(=Cc1nc2ccccc2s1)c1ccc(N2CCCC2)cc1` [17a, 2-(4-(Pyrrolidin-1-yl)styryl)benzo[d]thiazole], for which the “competition with [^3H]PiB / binding” value in experiment [1] was “None of the tested compounds appreciably competed against [^3H]PiB”. Moreover, the Ki in experiment [2] (setting [4]) was found to be 73.4 ± 19 nM.
As for `C[n+]1c(C=Cc2ccc(N3CCCC3)cc2)sc2ccccc21` [17b, 3-Methyl-2-(4-(pyrrolidin-1-yl)styryl)benzo[d]thiazol-3-ium Iodide], the Ki in experiment [2] (setting [5]) was 145 nM and 58.6 nM.
`FC1CCN(c2ccc(C=Cc3nc4ccccc4s3)cc2)CC1` [18a, 2-(4-(4-Fluoropiperidin-1-yl)styryl)benzo[d]thiazole]: in experiment [2] (setting [4]), the Ki turned out to be 99.8 ± 32.6 nM.
`C[n+]1c(C=Cc2ccc(N3CCC(F)CC3)cc2)sc2ccccc21` [18b, 2-(4-(4-Fluoropiperidin-1-yl)styryl)-3-methylbenzo[d]thiazol-3-ium Iodide]: the Ki in experiment [2] (setting [5]) was above 400 nM.
Take `CN(C)c1ccc(C=Cc2nc3ccccc3s2)cc1` [19a, 4-(2-(Benzo[d]thiazol-2-yl)vinyl)-N,N-dimethylaniline]: in experiment [2] (setting [4]), the Ki was above 400 nM.
Consider `CN(C)c1ccc(/C=C/c2sc3ccccc3[n+]2C)cc1` [19b, 2-(4-(Dimethylamino)styryl)-3-methylbenzo[d]thiazol-3-ium Iodide], for which, in experiment [2] (setting [5]), the inhibition constant Ki was above 400 nM.
On to `C(=Cc1nc2ccccc2s1)c1ccc(N2CCCCC2)cc1` [compound 20, 2-(4-(Piperidin-1-yl)styryl)benzo[d]thiazole], for which the Ki in experiment [2] (setting [4]) is 170 nM and 33.5 nM.
Turning to `Fc1ccc2nc(C=CC=Cc3ccc(N4CCCCC4)cc3)sc2c1` [compound 43, 6-Fluoro-2-(4-(4-(piperidin-1-yl)phenyl)buta-1,3-dien-1-yl)benzo[d]thiazole], the “competition with [^3H]PiB / binding” value in experiment [1] is listed as “remained low”. For the same molecule, the Ki in experiment [2] (setting [6]) worked out at 213 ± 122 nM. In addition, the “fold reduction of affinity compared to 14a” value in experiment [2] ([^3H]PiB competition) is recorded as around 3 fold.
With `Fc1ccc2nc(C=CC=Cc3ccc(N4CCCC4)cc3)sc2c1` [compound 44, 6-Fluoro-2-(4-(4-(pyrrolidin-1-yl)phenyl)buta-1,3-dien-1-yl)benzo[d]thiazole], the “competition with [^3H]PiB / binding” value in experiment [1] was “remained low”. This molecule also returned a Ki in experiment [2] (setting [6]) of 85 ± 41 nM.
Consider `Fc1ccc2nc(C=Cc3ccc(N4CCOCC4)cc3)sc2c1` [compound 45, 4-(4-(2-(6-Fluorobenzo[d]thiazol-2-yl)vinyl)phenyl)morpholine], for which, in experiment [1] ([^3H]PiB competition on αSYN and Aβ fibrils), the “αSYN/Aβ selectivity (in words)” value is “remained unchanged”. Also, the Ki in experiment [2] (setting [6]) is 10.3 ± 4.7 nM; in experiment [3] it was 20.3 nM and 41.2 nM. In addition, the “factor of affinity improvement compared to PFSB” value in experiment [2] ([^3H]PiB competition, Ki-MFSB vs Ki-PFSB) is on record as 2.5. In addition, in experiment [3] ([^3H]MODAG-001 competition), the “fold lower Ki than PFSB” value is reported as 4.6 fold.
